Reference: patent US20220175768A1, “FGFR TYROSINE KINASE INHIBITORS FOR THE TREATMENT OF UROTHELIAL CARCINOMA” (Janssen Pharmaceutica NV, priority 2019, published 2022)

[1] = 6 mg continuous, regimen 2 (n = 78)
[2] = 8 mg continuous, Regimen 3 (n = 99)
[3] = 8 mg continuous, selected regimen 3 (n = 99)

Description: Study treatment was administered on 28-day cycles. Prior to interim analysis 1, there were 2 treatment regimens. Patients were randomized 1:1 to 28-day cycles to the following 2 regimens until a regimen was selected for further study: Regimen 1 (10 mg once daily intermittent (7 days on/7 days); Regimen 2 (6 mg once daily continuous). Randomization was stratified according to performance status (0 to 1 vs. 2), hemoglobin value (<10 vs. ≥10 g per dl), FGFR alteration type (mutation vs. fusion), prior treatment status (chemotherapy-resistant vs. chemotherapy naïve), and disease distribution (presence or absence of visceral [liver, lung, bone] metastases). Starting dose selection was based on phase 1 efficacy and tolerability.
Thus, after interim analysis, this became a single-arm study. […] Treatment continued until disease progression or unacceptable adverse event(s) per investigator.
All objective responses required confirmation by an additional investigator assessment within 4 to 6 weeks of first assessment. Disease evaluations for regimen 3 were also performed by an independent radiographic review committee. […] Safety was evaluated based on clinical laboratory tests, physical exams, electrocardiograms, and ophthalmology examinations. Adverse events and abnormalities were assessed by investigator and graded per NCI CTCAE v.4.0
Prophylactic measures were taken to minimize risk of common adverse events related to FGFR inhibition. To reduce risk of hyperphosphatemia, a low-phosphate diet was recommended for all patients (600 to 800 mg of dietary phosphate intake per day). To reduce the risk of skin effects, the application of alcohol-free emollient moisturizing cream and avoidance of unnecessary exposure to sunlight, soap, perfumed products, and hot baths was recommended. Patients were asked to keep their fingers and toes clean and nails trimmed to reduce risk of nail effects.
Additional ophthalmology examinations were performed if clinically indicated.

## COc1cc(OC)cc(N(CCNC(C)C)c2ccc3ncc(-c4cnn(C)c4)nc3c2)c1 [erdafitinib, N-(3,5-dimethoxy-phenyl)-N′-(1-methylethyl)-N-[3-(1-methyl-1H-pyrazol-4-yl)quinoxalin-6-yl]ethane-1,2-diamine]
[1]
  Treatment-related adverse event: Asthenia, Any grade: 11 (14) no. (%)
  Treatment-related adverse event: Asthenia, Grade 1: 3 (4) no. (%)
  Treatment-related adverse event: Asthenia, Grade 2: 4 (5) no. (%)
  Treatment-related adverse event: Asthenia, Grade ≥3: 4 (5) no. (%)
  Treatment-related adverse event: Conjunctivitis, Any grade: 2 (3) no. (%)
  Treatment-related adverse event: Conjunctivitis, Grade 1: 2 (3) no. (%)
  Treatment-related adverse event: Conjunctivitis, Grade 2: 0 no. (%)
  Treatment-related adverse event: Conjunctivitis, Grade ≥3: 0 no. (%)
  Treatment-related adverse event: Decreased appetite, Any grade: 18 (23) no. (%)
  Treatment-related adverse event: Decreased appetite, Grade 1: 7 (9) no. (%)
  Treatment-related adverse event: Decreased appetite, Grade 2: 9 (12) no. (%)
  Treatment-related adverse event: Decreased appetite, Grade ≥3: 2 (3) no. (%)
  Treatment-related adverse event: Diarrhea, Any grade: 29 (37) no. (%)
  Treatment-related adverse event: Diarrhea, Grade 1: 16 (21) no. (%)
  Treatment-related adverse event: Diarrhea, Grade 2: 13 (17) no. (%)
  Treatment-related adverse event: Diarrhea, Grade ≥3: 0 no. (%)
  Treatment-related adverse event: Dry mouth, Any grade: 31 (40) no. (%)
  Treatment-related adverse event: Dry mouth, Grade 1: 23 (30) no. (%)
  Treatment-related adverse event: Dry mouth, Grade 2: 6 (8) no. (%)
  Treatment-related adverse event: Dry mouth, Grade ≥3: 2 (3) no. (%)
  Treatment-related adverse event: Dry skin, Any grade: 16 (21) no. (%)
  Treatment-related adverse event: Dry skin, Grade 1: 8 (10) no. (%)
  Treatment-related adverse event: Dry skin, Grade 2: 8 (10) no. (%)
  Treatment-related adverse event: Dry skin, Grade ≥3: 0 no. (%)
  Treatment-related adverse event: Dysgeusia, Any grade: 10 (13) no. (%)
  Treatment-related adverse event: Dysgeusia, Grade 1: 6 (8) no. (%)
  Treatment-related adverse event: Dysgeusia, Grade 2: 4 (5) no. (%)
  Treatment-related adverse event: Dysgeusia, Grade ≥3: 0 no. (%)
  Treatment-related adverse event: Fatigue, Any grade: 12 (15) no. (%)
  Treatment-related adverse event: Fatigue, Grade 1: 5 (6) no. (%)
  Treatment-related adverse event: Fatigue, Grade 2: 6 (8) no. (%)
  Treatment-related adverse event: Fatigue, Grade ≥3: 1 (1) no. (%)
  Treatment-related adverse event: Hand-foot syndrome, Any grade: 12 (15) no. (%)
  Treatment-related adverse event: Hand-foot syndrome, Grade 1: 4 (5) no. (%)
  Treatment-related adverse event: Hand-foot syndrome, Grade 2: 8 (10) no. (%)
  Treatment-related adverse event: Hand-foot syndrome, Grade ≥3: 0 no. (%)
  Treatment-related adverse event: Hyperphosphatemia, Any grade: 49 (63) no. (%)
  Treatment-related adverse event: Hyperphosphatemia, Grade 1: 41 (53) no. (%)
  Treatment-related adverse event: Hyperphosphatemia, Grade 2: 8 (10) no. (%)
  Treatment-related adverse event: Hyperphosphatemia, Grade ≥3: 0 no. (%)
  Treatment-related adverse event: Lacrimation increased, Any grade: 12 (15) no. (%)
  Treatment-related adverse event: Lacrimation increased, Grade 1: 9 (12) no. (%)
  Treatment-related adverse event: Lacrimation increased, Grade 2: 3 (4) no. (%)
  Treatment-related adverse event: Lacrimation increased, Grade ≥3: 0 no. (%)
  Treatment-related adverse event: Nausea, Any grade: 6 (8) no. (%)
  Treatment-related adverse event: Nausea, Grade 1: 4 (5) no. (%)
  Treatment-related adverse event: Nausea, Grade 2: 2 (3) no. (%)
  Treatment-related adverse event: Nausea, Grade ≥3: 0 no. (%)
  Treatment-related adverse event: Onycholysis, Any grade: 13 (17) no. (%)
  Treatment-related adverse event: Onycholysis, Grade 1: 2 (3) no. (%)
  Treatment-related adverse event: Onycholysis, Grade 2: 6 (8) no. (%)
  Treatment-related adverse event: Onycholysis, Grade ≥3: 5 (6) no. (%)
  Treatment-related adverse event: Onychomadesis, Any grade: 8 (10) no. (%)
  Treatment-related adverse event: Onychomadesis, Grade 1: 2 (3) no. (%)
  Treatment-related adverse event: Onychomadesis, Grade 2: 6 (8) no. (%)
  Treatment-related adverse event: Onychomadesis, Grade ≥3: 0 no. (%)
  Treatment-related adverse event: Paronychia, Any grade: 11 (14) no. (%)
  Treatment-related adverse event: Paronychia, Grade 1: 1 (1) no. (%)
  Treatment-related adverse event: Paronychia, Grade 2: 10 (13) no. (%)
  Treatment-related adverse event: Paronychia, Grade ≥3: 0 no. (%)
  Treatment-related adverse event: Retinal detachment, Any grade: 8 (10) no. (%)
  Treatment-related adverse event: Retinal detachment, Grade 1: 5 (6) no. (%)
  Treatment-related adverse event: Retinal detachment, Grade 2: 3 (4) no. (%)
  Treatment-related adverse event: Retinal detachment, Grade ≥3: 0 no. (%)
  Treatment-related adverse event: Stomatitis, Any grade: 33 (42) no. (%)
  Treatment-related adverse event: Stomatitis, Grade 1: 13 (17) no. (%)
  Treatment-related adverse event: Stomatitis, Grade 2: 13 (17) no. (%)
  Treatment-related adverse event: Stomatitis, Grade ≥3: 7 (9) no. (%)
  Treatment-related adverse event: Vision blurred, Any grade: 5 (6) no. (%)
  Treatment-related adverse event: Vision blurred, Grade 1: 3 (4) no. (%)
  Treatment-related adverse event: Vision blurred, Grade 2: 1 (1) no. (%)
  Treatment-related adverse event: Vision blurred, Grade ≥3: 1 (1) no. (%)
8 mg continuous (n = 99)
  Treatment-related adverse event: Alopecia, Grade 3: 0 no.
  Treatment-related adverse event: Decreased appetite, Grade 3: 0 no.
  Treatment-related adverse event: Dry mouth, Grade 3: 0 no.
  Treatment-related adverse event: Dry skin, Grade 3: 0 no.
  Treatment-related adverse event: Lacrimation increased, Grade 3: 0 no.
  Treatment-related adverse event: Vision blurred, Grade 3: 0 no.
  Treatment-related adverse event: Weight decreased, Grade 3: 0 no.
[2]
  Treatment-related adverse event of special interest or clinical importance: Arrhythmia-related events, Any grade: 0 no.
  Treatment-related adverse event of special interest or clinical importance: Arrhythmia-related events, Grade ≥3: 0 no.
[3]
  Patients with Abdominal pain, Any grade: 8 (8) no. (%)
  Patients with Abdominal pain, Grade 1: 5 (5) no. (%)
  Patients with Abdominal pain, Grade 2: 2 (2) no. (%)
  Patients with Abdominal pain, Grade ≥3: 1 (1) no. (%)
  Patients with Alanine aminotransferase increased, Any grade: 17 (17) no. (%)
  Patients with Alanine aminotransferase increased, Grade 1: 13 (13) no. (%)
  Patients with Alanine aminotransferase increased, Grade 2: 2 (2) no. (%)
  Patients with Alanine aminotransferase increased, Grade ≥3: 2 (2) no. (%)
  Patients with Alopecia, Any grade: 29 (29) no. (%)
  Patients with Alopecia, Grade 1: 23 (23) no. (%)
  Patients with Alopecia, Grade 2: 6 (6) no. (%)
  Patients with Alopecia, Grade ≥3: 0 no. (%)
  Patients with Anemia, Any grade: 20 (20) no. (%)
  Patients with Anemia, Grade 1: 9 (9) no. (%)
  Patients with Anemia, Grade 2: 7 (7) no. (%)
  Patients with Anemia, Grade ≥3: 4 (4) no. (%)
  Patients with Arthralgia, Any grade: 8 (8) no. (%)
  Patients with Arthralgia, Grade 1: 5 (5) no. (%)
  Patients with Arthralgia, Grade 2: 3 (3) no. (%)
  Patients with Arthralgia, Grade ≥3: 0 no. (%)
  Patients with Aspartate aminotransferase increased, Any grade: 10 (10) no. (%)
  Patients with Aspartate aminotransferase increased, Grade 1: 8 (8) no. (%)
  Patients with Aspartate aminotransferase increased, Grade 2: 2 (2) no. (%)
  Patients with Aspartate aminotransferase increased, Grade ≥3: 0 no. (%)
  Patients with Asthenia, Any grade: 20 (20) no. (%)
  Patients with Asthenia, Grade 1: 2 (2) no. (%)
  Patients with Asthenia, Grade 2: 11 (11) no. (%)
  Patients with Asthenia, Grade ≥3: 7 (7) no. (%)
  Patients with Back pain, Any grade: 5 (5) no. (%)
  Patients with Back pain, Grade 1: 4 (4) no. (%)
  Patients with Back pain, Grade 2: 1 (1) no. (%)
  Patients with Back pain, Grade ≥3: 0 no. (%)
  Patients with Blood creatinine increased, Any grade: 10 (10) no. (%)
  Patients with Blood creatinine increased, Grade 1: 5 (5) no. (%)
  Patients with Blood creatinine increased, Grade 2: 5 (5) no. (%)
  Patients with Blood creatinine increased, Grade ≥3: 0 no. (%)
  Patients with Conjunctivitis, Any grade: 13 (13) no. (%)
  Patients with Conjunctivitis, Grade 1: 6 (6) no. (%)
  Patients with Conjunctivitis, Grade 2: 7 (7) no. (%)
  Patients with Conjunctivitis, Grade ≥3: 0 no. (%)
  Patients with Constipation, Any grade: 28 (28) no. (%)
  Patients with Constipation, Grade 1: 19 (19) no. (%)
  Patients with Constipation, Grade 2: 8 (8) no. (%)
  Patients with Constipation, Grade ≥3: 1 (1) no. (%)
  Patients with Decreased appetite, Any grade: 38 (38) no. (%)
  Patients with Decreased appetite, Grade 1: 18 (18) no. (%)
  Patients with Decreased appetite, Grade 2: 20 (20) no. (%)
  Patients with Decreased appetite, Grade ≥3: 0 no. (%)
  Patients with Diarrhea, Any grade: 50 (51) no. (%)
  Patients with Diarrhea, Grade 1: 31 (31) no. (%)
  Patients with Diarrhea, Grade 2: 15 (15) no. (%)
  Patients with Diarrhea, Grade ≥3: 4 (4) no. (%)
  Patients with Dry eye, Any grade: 19 (19) no. (%)
  Patients with Dry eye, Grade 1: 14 (14) no. (%)
  Patients with Dry eye, Grade 2: 4 (4) no. (%)
  Patients with Dry eye, Grade ≥3: 1 (1) no. (%)
  Patients with Dry mouth, Any grade: 45 (46) no. (%)
  Patients with Dry mouth, Grade 1: 34 (34) no. (%)
  Patients with Dry mouth, Grade 2: 11 (11) no. (%)
  Patients with Dry mouth, Grade ≥3: 0 no. (%)
  Patients with Dry skin, Any grade: 32 (32) no. (%)
  Patients with Dry skin, Grade 1: 24 (24) no. (%)
  Patients with Dry skin, Grade 2: 8 (8) no. (%)
  Patients with Dry skin, Grade ≥3: 0 no. (%)
  Patients with Dysgeusia, Any grade: 37 (37) no. (%)
  Patients with Dysgeusia, Grade 1: 23 (23) no. (%)
  Patients with Dysgeusia, Grade 2: 13 (13) no. (%)
  Patients with Dysgeusia, Grade ≥3: 1 (1) no. (%)
  Patients with Dyspepsia, Any grade: 11 (11) no. (%)
  Patients with Dyspepsia, Grade 1: 10 (10) no. (%)
  Patients with Dyspepsia, Grade 2: 1 (1) no. (%)
  Patients with Dyspepsia, Grade ≥3: 0 no. (%)
  Patients with Dyspnea, Any grade: 8 (8) no. (%)
  Patients with Dyspnea, Grade 1: 4 (4) no. (%)
  Patients with Dyspnea, Grade 2: 2 (2) no. (%)
  Patients with Dyspnea, Grade ≥3: 2 (2) no. (%)
  Patients with Fatigue, Any grade: 32 (32) no. (%)
  Patients with Fatigue, Grade 1: 12 (12) no. (%)
  Patients with Fatigue, Grade 2: 18 (18) no. (%)
  Patients with Fatigue, Grade ≥3: 2 (2) no. (%)
  Patients with Hand-foot syndrome, Any grade: 23 (23) no. (%)
  Patients with Hand-foot syndrome, Grade 1: 6 (6) no. (%)
  Patients with Hand-foot syndrome, Grade 2: 12 (12) no. (%)
  Patients with Hand-foot syndrome, Grade ≥3: 5 (5) no. (%)
  Patients with Hematuria, Any grade: 10 (10) no. (%)
  Patients with Hematuria, Grade 1: 7 (7) no. (%)
  Patients with Hematuria, Grade 2: 1 (1) no. (%)
  Patients with Hematuria, Grade ≥3: 2 (2) no. (%)
  Patients with Hyperphosphatemia, Any grade: 76 (77) no. (%)
  Patients with Hyperphosphatemia, Grade 1: 53 (54) no. (%)
  Patients with Hyperphosphatemia, Grade 2: 21 (21) no. (%)
